Legend:
[1] = test system: MDA-MB-231 breast cancer bone metastases; assay: Experimental breast cancer bone metastases in nude rats: histology / immunofluorescence of tumor vessels; assay type: in vivo, nude rats (RNU strain); details: after 4 weeks treatment (control rats 8.8 μm; p<0.01)
Procedure: Nude rats (RNU strain) are obtained from Harlan-Winkelmann GmbH (Borchen, Germany) at the age of six weeks and housed in a specific pathogen-free environment in a mini barrier system of the central animal facility. Animals are kept under controlled conditions (21±2° C. room temperature, 60% humidity, 12 h light-dark rhythm) and offered autoclaved food and water ad libitum. Sub-confluent MDAMB-231 cells are harvested using 0.05% Trypsin-EDTA (Gibco®; Invitrogen, Karlsruhe, Germany) counted on a Neubauer's chamber and resuspended in RPMI-1640 to a final concentration of 10^5 cells in 200 μl. Rats are anesthetized using a mixture of nitrous oxide (1 l/min), oxygen (0.5 l/min) and isoflurane (1.5 vol. %). Arterial branches of the right hind leg are dissected and 10^5 cells injected into the superficial epigastric artery as described previously.^28 Bone metastases established and are observed exclusively in the femur, tibia and fibula of the right hind leg. […]
At the end of the observation period lower limbs of each animal are amputated and muscular tissue removed. […] Mean positive area fractions of SMA and collagen IV (in percent) as well as mean vessel diameters (in μm) are determined from 4 representative animals of each group analyzing 10 fields of view chosen randomly from each rat using Analysis Software (cell^F; Olympus Soft Imaging Solutions, Münster, Germany). […]

[2] = test system: 4T1 mouse breast tumour cells; assay: Study 006: 4T1 survival model; assay type: in vivo, female BALB/c mice; details: 300 mg/kg daily s.c. as Composition according to Example 18; mastectomy 11 days post-inoculation
Procedure: 4T1 mouse breast tumour cells were orthotopically inoculated into the fourth mammary fat pad of female BALB/c mice. Treatment started seven days post-inoculation (Day 0), when the mice were randomised, based on tumour size. Animals received treatment with either Vehicle Control (Placebo), EMD 121974 (75, 150 or 300 mg/kg as a Composition according to Example 18), or Taxol® (8 mg/kg). The Vehicle Control and EMD 121974 were administered daily by subcutaneous injection. Taxol® was administered three times weekly by intravenous injection. To assess the survival of tumor bearing animals a mastectomy was performed 11 days post-inoculation (4 days after treatment start). Animals were monitored daily for clinical symptoms and were culled if body weight loss in any animal exceeded 15% of initial weight, the animal was culled or disease progression was observed (e.g. severe breathing difficulties). Body weight measurements were made three times per week.

A549 = assay: Cellular radiosensitivity by clonogenic cell survival assay, A549; assay type: cell-based, human; details: combined with γ-radiation, given 1 h before and continued 23 h after irradiation
Procedure: (§1) Methods: Three non-small cell lung carcinoma lines (NSCLCs) (H460, A549 and H1299) and three head and neck squamous cell carcinoma lines (HNSCCs) (FaDu, SCC-15 and SCC-25) cell lines were used for in vitro experiments. Of these, H460 and FaDu were used for in vivo testing when grown as xenografts in nude mice. The effects of cilengitide (1-50 μg/ml, 24 h) on in vitro cell viability was determined by MTS assay and on cellular radiosensitivity by clonogenic cell survival assay after exposing the cells to graded single doses of γ-radiation with or without cilengitide (given 1 h before and continued for 23 h after irradiation). In vivo effect of cilengitide on radioresponse of xenografts was assessed by tumor growth delay. When tumor xenografts reached 7 mm in diameter cilengitide treatment (30 or 60 mg/d/5 or 10 days) was initiated followed by a single dose of 15 Gy local radiation (using ^137Cs γ-ray source), when the tumors reached 8 mm.

[3] = test system: HNSCC lines (FaDu, SCC-15 and SCC-25); assay: Cellular radiosensitivity by clonogenic cell survival assay, HNSCC lines; assay type: cell-based, human; details: combined with γ-radiation
Procedure: as §1

[4] = test system: H460 (NSCLC) tumor xenografts; assay: Tumor growth delay of H460 xenografts with radiation; assay type: in vivo, nude mice
Procedure: as §1

[5] = test system: FaDu (HNSCC) tumor xenografts; assay: Tumor growth delay of FaDu xenografts with radiation; assay type: in vivo, nude mice
Procedure: as §1

[6] = with single dose of 15 Gy local radiation

In the case of `CC(C)[C@H]1C(=O)N[C@@H](CCCN=C(N)N)C(=O)NCC(=O)N[C@@H](CC(=O)O)C(=O)N[C@H](Cc2ccccc2)C(=O)N1C` [Cilengitide, cyclo-(Arg-Gly-Asp-DPhe-NMeVal)], the “mean vessel diameter in bone metastases” value [1] is reported as 6.6 μm, the “survival of tumor bearing animals” value [2] is reported as “comparable survival as Taxol” and the radiosensitivity enhancement factor (A549) is reported as 1.56. For the same compound, the “effect on radiosensitivity of HNSCC lines” value [3] was “only an additive effect”, the “enhancement factor of tumor radioresponse (tumor growth delay)” value [4, 6] was 1.7 and the “antitumor activity as a single agent (tumor growth delay)” value ([4]; without radiation) was “no antitumor activity”. For the same compound, the “enhancement factor of tumor radioresponse (tumor growth delay)” value [5, 6] was 2.0 and the “antitumor activity as a single agent (tumor growth delay)” value ([5]; without radiation) was “no antitumor activity”.

— patent US10478501B2, “Method of treating disorders using a pharmaceutical composition of oligopeptides” (Merck Patent GmbH, priority 2011, dated 2019)
